Consider seven compounds from patent publication US12037324B2, “Biarylmethyl heterocycles” (Université de Montréal, priority 2016, dated 2024).

Like-named read-outs stand apart in the source and are kept apart here.

In assay [1] the target is T1, AGTR1 (Homo sapiens, UniProt P30556).
T1 construct: host or cells: Pathunter CHO-K1 AGTR1 β-arrestin cell line (CHO-K1)
T1 sequence (P30556 1-359): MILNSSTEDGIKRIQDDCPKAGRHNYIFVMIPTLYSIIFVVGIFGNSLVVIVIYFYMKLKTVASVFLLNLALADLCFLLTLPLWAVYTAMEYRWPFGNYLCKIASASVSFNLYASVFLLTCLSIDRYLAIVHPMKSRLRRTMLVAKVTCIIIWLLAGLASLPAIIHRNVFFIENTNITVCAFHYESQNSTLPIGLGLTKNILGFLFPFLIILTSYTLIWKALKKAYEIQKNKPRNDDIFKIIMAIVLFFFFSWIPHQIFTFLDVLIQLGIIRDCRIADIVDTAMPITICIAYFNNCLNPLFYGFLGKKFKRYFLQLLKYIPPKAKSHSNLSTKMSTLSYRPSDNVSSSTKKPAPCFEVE
The experiment in a line: DiscoveRx IP1 accumulation assay (HTRF), agonist mode, Pathunter CHO-K1 AGTR1 β-arrestin cell line. The note with it: for EC50: read-out: IP-1 EC50. The class given is cell-based. The method, boiled down: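 Agonist mode in CHO-K1 AGTR1 β-arrestin cells plated 14-16 h before; compounds at varying concentrations for 90 min at 37° C, IP1 accumulation read by HTRF (D2-conjugate and anti-IP1 cryptate, 20 min room temperature). EC50 from 4-parameter logistic fit; activity given as percentage of maximal AII effect.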
For orientation: TR-FRET usually uses a lanthanide donor and a delayed reading to cut background.

The target in assay [2] is T2, hAT1R (Homo sapiens, UniProt P30556).
T2 sequence (P30556 1-359): T1 sequence (P30556 1-359)
The experiment in a line: cell-based.

Assay [3] has as its target T1, AGTR1. Kind of assay: DiscoveRx β-arrestin2 recruitment assay (enzyme complementation, Pathunter CHO-K1 AGTR1 β-arrestin cell line). The assay is classed as cell-based. The note with it: DiscoveRx β-arrestin2 recruitment; for DiscoveRx β-arrestin2 Ymax (%): maximal response. The method, boiled down:
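Chemiluminescent enzyme-complementation read-out of β-arrestin2 recruitment to AGTR1 in engineered CHO-K1 cells after 90 min compound exposure at 37° C. Values are 4-parameter logistic EC50s in agonist mode, IC50s in antagonist mode, with efficacy relative to the maximal All response.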
A general note: Activated receptors often draw arrestin, which recruitment assays turn into a signal.

Assay [4] addresses T2, hAT1R. The experiment in a line: cell-based. The note with it: agonist mode; for EC50: read-out: BRET P63 EC50.
[5] abbreviates: section of the 42nd table ending at r951, example numbering restarts after the DiscoveRx section, read-out: β-arrestin2 EC50.
Where [6] appears, read: Low AT1R Expression, read-out: BRET β-Arrestin2 Low AT1R Expression EC50.

For the compound `CCc1nc2c(C)cc(C)nc2n1Cc1ccc(-c2cc(-c3ccccn3)ccc2C(=O)O)cc1` [Example 192, 4′-((2-ethyl-5,7-dimethyl-3H-imidazo[4,5-b]pyridin-3-yl)methyl)-5-(pyridin-2-yl)biphenyl-2-carboxylic acid], the “IP-1 Ymax (%)” value at AGTR1 [1] turned out to be 11.1%. The EC50 (as a rule, the concentration giving half of the maximal effect) at AGTR1 [1] is 223 nM; on hAT1R [2] (setting [5]), 127 nM; at AGTR1 [3], 94.3 nM; at hAT1R [4] it was > 100000 nM. Also, the “DiscoveRx β-arrestin2 Ymax (%)” value on AGTR1 [3] is listed as 45.1%.

In the case of `CCc1nc2c(C)cc(C)nc2n1Cc1ccc(-c2cc(-c3cn(C)nn3)ccc2-c2nnn[nH]2)cc1` [Example 243, 2-Ethyl-5,7-dimethyl-3-((5′-(1-methyl-1H-1,2,3-triazol-4-yl)-2′-(1H-tetrazol-5-yl)-[1,1′-biphenyl]-4-yl)methyl)-3H-imidazo[4,5-b]pyridine], at AGTR1 [1], the “IP-1 Ymax (%)” value came out at 14.7% and the EC50 turned out to be 52 nM. Besides, the EC50 on hAT1R [2] (setting [5]) came out at 71.5 nM. In addition, at AGTR1 [3], the EC50 amounted to 22.4 nM and the “DiscoveRx β-arrestin2 Ymax (%)” value turned out to be 37.7%. Also, at hAT1R [4], the “BRET P63 Ymax” value is on record as 15.2% and the EC50 was determined as 42.1 nM.

Consider `CCc1nc2c(C)cc(C)nc2n1Cc1ccc(-c2cc(-c3cn(CC(C)C)nn3)ccc2-c2nnn[nH]2)cc1` [Example 240], for which, at AGTR1 [1], the “IP-1 Ymax (%)” value is on record as 14.1% and the EC50 was determined as 122 nM. The EC50 on hAT1R [2] (setting [5]) was found to be 345 nM. Besides, at AGTR1 [3], it took 48.6 nM to reach a half-maximal effect (EC50) and the “DiscoveRx β-arrestin2 Ymax (%)” value is given as 42.0%. Further, on hAT1R [4], the “BRET P63 Ymax” value was 9.5% and the EC50 came to 60.1 nM.

Consider `CCc1nc2c(C)cc(C)nc2n1Cc1ccc(-c2cc(C3CCCCCC3)ccc2-c2nn[nH]n2)cc1` [Example 81], for which the EC50 at AGTR1 [1] was > 100000 nM; at hAT1R [2] (setting [6]), 38.3 nM; at AGTR1 [3] it was 38.3 nM; at hAT1R [4], > 100000 nM. Also, the “BRET β-Arrestin2 Low AT1R Expression Ymax (%)” value at hAT1R [2] (Low AT1R Expression) is reported as 16.3%. Besides, the “DiscoveRx β-arrestin2 Ymax (%)” value on AGTR1 [3] is 17.6%.

Consider `CCc1nc2c(C)cc(C)nc2n1Cc1ccc(-c2cc(C3CCCC3)ccc2-c2nn[nH]n2)cc1` [Example 80, 3-((5′-cyclopentyl-2′-(2H-tetrazol-5-yl)-[1,1′-biphenyl]-4-yl)methyl)-2-ethyl-5,7-dimethyl-3H-imidazo[4,5-b]pyridine], for which the “IP-1 Ymax (%)” value on AGTR1 [1] is 14.6%. Further, the EC50 on AGTR1 [1] was 425 nM; on hAT1R [2] (setting [6]) it was 30.4 nM; on AGTR1 [3] it was 73.4 nM; on hAT1R [4], > 100000 nM. On hAT1R [2] (Low AT1R Expression), the “BRET β-Arrestin2 Low AT1R Expression Ymax (%)” value was determined as 29.8%. On AGTR1 [3], the “DiscoveRx β-arrestin2 Ymax (%)” value was 33.5%.

Regarding `CCCC1=NC2(CCCC2)C(=O)N1Cc1ccc(-c2cc(-c3cc(C)ccn3)ccc2-c2nn[nH]n2)cc1` [Example 116, 3-((5′-(4-methylpyridin-2-yl)-2′-(2H-tetrazol-5-yl)-[1,1′-biphenyl]-4-yl)methyl)-2-propyl-1,3-diazaspiro[4.4]non-1-en-4-one], at AGTR1 [1], the “IP-1 Ymax (%)” value is recorded as 15.1% and the EC50 turned out to be 39.7 nM. Also, at hAT1R [2] (Low AT1R Expression), the “BRET β-Arrestin2 Low AT1R Expression Ymax (%)” value came out at 81.9%. Moreover, the EC50 on hAT1R [2] (setting [6]) came to 17.2 nM. On AGTR1 [3], it took 14.1 nM to reach a half-maximal effect (EC50) and the “DiscoveRx β-arrestin2 Ymax (%)” value was determined as 42.1%. For the same compound, on hAT1R [4], the “BRET P63 Ymax” value is recorded as 27.7% and the EC50 worked out at 14.7 nM.

As to `CCc1nc2c(C)cc(C)nc2n1Cc1ccc(-c2cc(-c3cccc(C)c3)ccc2-c2nnn[nH]2)nn1` [Example 191, 2-ethyl-5,7-dimethyl-3-((6-(3′-methyl-4-(1H-tetrazol-5-yl)biphenyl-3-yl)pyridazin-3-yl)methyl)-3H-imidazo[4,5-b]pyridine], on AGTR1 [1], the “IP-1 Ymax (%)” value is 29.9% and the EC50 stood at 118 nM. Moreover, on hAT1R [2] (setting [5]), the EC50 came out at 76 nM. Besides, at AGTR1 [3], a half-maximal response (EC50) required 20.7 nM and the “DiscoveRx β-arrestin2 Ymax (%)” value is given as 53.0%. Moreover, at hAT1R [4], the “BRET P63 Ymax” value is 24.2% and the EC50 was found to be 101 nM.
